Assay results reported in ChEMBL document CHEMBL5055653, “Synthesis, microbiological evaluation and structure activity relationship analysis of linezolid analogues with different C5-acylamino substituents” (2021).
Values after ≈ are worked out from the molar mass of the structure shown. Active and inactive are the calls of the source. The rule behind the calls is not given here.

Tests used:
Enterococcus faecium = assay: Antibacterial activity against Vanomycin-resistant Enterococcus faecium NCTC 12204 assessed as reduction in bacterial growth incubated for 20 hrs by microplate reader method; format: functional
Staphylococcus aureus [1] = assay: Antibacterial activity against Staphylococcus aureus ATCC 9144 assessed as reduction in bacterial growth incubated for 20 hrs by microplate reader method; format: functional
Staphylococcus aureus [2] = assay: Antibacterial activity against Staphylococcus aureus NCTC 13616 assessed as reduction in bacterial growth incubated for 20 hrs by microplate reader method; format: functional
Staphylococcus aureus [3] = assay: Antibacterial activity against Staphylococcus aureus 1199B assessed as reduction in bacterial growth incubated for 20 hrs by microplate reader method; format: functional
Enterococcus faecalis [4] = assay: Antibacterial activity against Vanomycin-resistant Enterococcus faecalis NCTC 12201 assessed as reduction in bacterial growth incubated for 20 hrs by microplate reader method; format: functional
Staphylococcus aureus [5] = assay: Antibacterial activity against Staphylococcus aureus USA 300 assessed as reduction in bacterial growth incubated for 20 hrs by microplate reader method; format: functional
Enterococcus faecalis [6] = assay: Antibacterial activity against Vanomycin-sensitive Enterococcus faecalis NCTC 775 assessed as reduction in bacterial growth incubated for 20 hrs by microplate reader method; format: functional
Escherichia coli = assay: Antibacterial activity against Escherichia coli NCTC 12923 assessed as reduction in bacterial growth incubated for 20 hrs in presence of PMBN by microplate reader method; format: functional, organism-based
Pseudomonas aeruginosa [7] = assay: Antibacterial activity against Pseudomonas aeruginosa PAO1 assessed as reduction in bacterial growth incubated for 20 hrs in presence of PMBN by microplate reader method; format: functional
Acinetobacter baumannii [8] = assay: Antibacterial activity against Acinetobacter baumannii AYE assessed as reduction in bacterial growth incubated for 20 hrs in presence of PMBN by microplate reader method; format: functional, organism-based
Acinetobacter baumannii [9] = assay: Antibacterial activity against Acinetobacter baumannii ATCC 17978 assessed as reduction in bacterial growth incubated for 20 hrs in presence of PMBN by microplate reader method; format: functional, organism-based
Pseudomonas aeruginosa [10] = assay: Antibacterial activity against Pseudomonas aeruginosa NCTC 13437 assessed as reduction in bacterial growth incubated for 20 hrs in presence of PMBN by microplate reader method; format: functional, organism-based

SMILES | MIC (Enterococcus faecium) | MIC (Staphylococcus aureus [1]) | MIC (Staphylococcus aureus [2]) | MIC (Staphylococcus aureus [3]) | MIC (Enterococcus faecalis [4]) | MIC (Staphylococcus aureus [5]) | MIC (Enterococcus faecalis [6]) | Activity (Escherichia coli) | Activity (Pseudomonas aeruginosa [7]) | Activity (Acinetobacter baumannii [8]) | Activity (Acinetobacter baumannii [9]) | Activity (Pseudomonas aeruginosa [10])
CCC(=O)NC[C@H]1CN(c2ccc(N3CCOCC3)c(F)c2)C(=O)O1 | 4 µg/mL (≈ 11.4 µM) | 8 µg/mL (≈ 22.8 µM) | 4 µg/mL (≈ 11.4 µM) | 4 µg/mL (≈ 11.4 µM) | 4 µg/mL (≈ 11.4 µM) | 8 µg/mL (≈ 22.8 µM) | 4 µg/mL (≈ 11.4 µM) |  |  |  |  | 
Cc1nc(Br)sc1C(=O)NC[C@H]1CN(c2ccc(N3CCOCC3)c(F)c2)C(=O)O1 | 32 µg/mL (≈ 64.1 µM) | 16 µg/mL (≈ 32 µM) | 16 µg/mL (≈ 32 µM) | 16 µg/mL (≈ 32 µM) | 32 µg/mL (≈ 64.1 µM) | 16 µg/mL (≈ 32 µM) | 32 µg/mL (≈ 64.1 µM) |  |  |  |  | 
CC(C)C(=O)NC[C@H]1CN(c2ccc(N3CCOCC3)c(F)c2)C(=O)O1 | 8 µg/mL (≈ 21.9 µM) | 16 µg/mL (≈ 43.8 µM) | 16 µg/mL (≈ 43.8 µM) | 8 µg/mL (≈ 21.9 µM) | 8 µg/mL (≈ 21.9 µM) | 16 µg/mL (≈ 43.8 µM) | 16 µg/mL (≈ 43.8 µM) |  |  |  |  | 
O=C(NC[C@H]1CN(c2ccc(N3CCOCC3)c(F)c2)C(=O)O1)c1cnco1 | 128 µg/mL (≈ 328 µM) | 128 µg/mL (≈ 328 µM) | 128 µg/mL (≈ 328 µM) | 128 µg/mL (≈ 328 µM) | 128 µg/mL (≈ 328 µM) | > 128 µg/mL | 64 µg/mL (≈ 164 µM) | inactive | inactive | inactive | inactive | inactive
Cn1cc([N+](=O)[O-])nc1C(=O)NC[C@H]1CN(c2ccc(N3CCOCC3)c(F)c2)C(=O)O1 | > 128 µg/mL | > 128 µg/mL | > 128 µg/mL | > 128 µg/mL | > 128 µg/mL | > 128 µg/mL | > 128 µg/mL |  |  |  |  | 
O=C(NC[C@H]1CN(c2ccc(N3CCOCC3)c(F)c2)C(=O)O1)c1cnccn1 | 64 µg/mL (≈ 159 µM) | 64 µg/mL (≈ 159 µM) | 64 µg/mL (≈ 159 µM) | 32 µg/mL (≈ 79.7 µM) | 64 µg/mL (≈ 159 µM) | 64 µg/mL (≈ 159 µM) | 64 µg/mL (≈ 159 µM) |  |  |  |  | 
O=C(NC[C@H]1CN(c2ccc(N3CCOCC3)c(F)c2)C(=O)O1)c1cc2ncccc2o1 | 16 µg/mL (≈ 36.3 µM) | 16 µg/mL (≈ 36.3 µM) | 16 µg/mL (≈ 36.3 µM) | 16 µg/mL (≈ 36.3 µM) | 8 µg/mL (≈ 18.2 µM) | 16 µg/mL (≈ 36.3 µM) | 16 µg/mL (≈ 36.3 µM) |  |  |  |  | 
CCCC(=O)NC[C@H]1CN(c2ccc(N3CCOCC3)c(F)c2)C(=O)O1 | 8 µg/mL (≈ 21.9 µM) | 8 µg/mL (≈ 21.9 µM) | 8 µg/mL (≈ 21.9 µM) | 8 µg/mL (≈ 21.9 µM) | 8 µg/mL (≈ 21.9 µM) | 16 µg/mL (≈ 43.8 µM) | 8 µg/mL (≈ 21.9 µM) |  |  |  |  | 
NCC(=O)NC[C@H]1CN(c2ccc(N3CCOCC3)c(F)c2)C(=O)O1 | 32 µg/mL (≈ 90.8 µM) | > 128 µg/mL | > 128 µg/mL | > 128 µg/mL | 64 µg/mL (≈ 182 µM) | > 128 µg/mL | 64 µg/mL (≈ 182 µM) |  |  |  |  | 
O=C(NC[C@H]1CN(c2ccc(N3CCOCC3)c(F)c2)C(=O)O1)[C@H]1CCNC1 | > 128 µg/mL | > 128 µg/mL | > 128 µg/mL | > 128 µg/mL | > 128 µg/mL | > 128 µg/mL | > 128 µg/mL | inactive | inactive | inactive | inactive | inactive
O=C(NC[C@H]1CN(c2ccc(N3CCOCC3)c(F)c2)C(=O)O1)c1ccccc1 | 16 µg/mL (≈ 40.1 µM) | 64 µg/mL (≈ 160 µM) | 32 µg/mL (≈ 80.1 µM) | 16 µg/mL (≈ 40.1 µM) | 16 µg/mL (≈ 40.1 µM) | 32 µg/mL (≈ 80.1 µM) | 32 µg/mL (≈ 80.1 µM) |  |  |  |  | 
O=C(NC[C@H]1CN(c2ccc(N3CCOCC3)c(F)c2)C(=O)O1)c1ccsc1 | 8 µg/mL (≈ 19.7 µM) | 16 µg/mL (≈ 39.5 µM) | 16 µg/mL (≈ 39.5 µM) | 8 µg/mL (≈ 19.7 µM) | 8 µg/mL (≈ 19.7 µM) | 16 µg/mL (≈ 39.5 µM) | 16 µg/mL (≈ 39.5 µM) |  |  |  |  | 
O=C(NC[C@H]1CN(c2ccc(N3CCOCC3)c(F)c2)C(=O)O1)C1CC=CC1 | 16 µg/mL (≈ 41.1 µM) | 16 µg/mL (≈ 41.1 µM) | 16 µg/mL (≈ 41.1 µM) | 8 µg/mL (≈ 20.5 µM) | 8 µg/mL (≈ 20.5 µM) | 16 µg/mL (≈ 41.1 µM) | 16 µg/mL (≈ 41.1 µM) |  |  |  |  | 
Cc1ccc(CC(=O)NC[C@H]2CN(c3ccc(N4CCOCC4)c(F)c3)C(=O)O2)cc1 | 16 µg/mL (≈ 37.4 µM) | 128 µg/mL (≈ 299 µM) | 64 µg/mL (≈ 150 µM) | 64 µg/mL (≈ 150 µM) | 16 µg/mL (≈ 37.4 µM) | 128 µg/mL (≈ 299 µM) | 64 µg/mL (≈ 150 µM) |  |  |  |  | 
O=C(NC[C@H]1CN(c2ccc(N3CCOCC3)c(F)c2)C(=O)O1)c1cc2ccccc2[nH]1 | > 128 µg/mL | > 128 µg/mL | > 128 µg/mL | > 128 µg/mL | > 128 µg/mL | > 128 µg/mL | > 128 µg/mL |  |  |  |  | 
O=C(NC[C@H]1CN(c2ccc(N3CCOCC3)c(F)c2)C(=O)O1)c1cc[nH]c1 | 16 µg/mL (≈ 41.2 µM) | 32 µg/mL (≈ 82.4 µM) | 64 µg/mL (≈ 165 µM) | 64 µg/mL (≈ 165 µM) | 32 µg/mL (≈ 82.4 µM) | 32 µg/mL (≈ 82.4 µM) | 32 µg/mL (≈ 82.4 µM) |  |  |  |  | 
NCCCC(=O)NC[C@H]1CN(c2ccc(N3CCOCC3)c(F)c2)C(=O)O1 | 64 µg/mL (≈ 168 µM) | > 128 µg/mL | > 128 µg/mL | > 128 µg/mL | > 128 µg/mL | > 128 µg/mL | > 128 µg/mL |  |  |  |  | 
CN1CCC(C(=O)NC[C@H]2CN(c3ccc(N4CCOCC4)c(F)c3)C(=O)O2)C1 (some centres undefined) | > 128 µg/mL | > 128 µg/mL | > 128 µg/mL | > 128 µg/mL | > 128 µg/mL | > 128 µg/mL | > 128 µg/mL |  |  |  |  | 
O=C(NC[C@H]1CN(c2ccc(N3CCOCC3)c(F)c2)C(=O)O1)C1CCCS1 (some centres undefined) | 32 µg/mL (≈ 78.1 µM) | 64 µg/mL (≈ 156 µM) | 32 µg/mL (≈ 78.1 µM) | 32 µg/mL (≈ 78.1 µM) | 32 µg/mL (≈ 78.1 µM) | 32 µg/mL (≈ 78.1 µM) | 32 µg/mL (≈ 78.1 µM) |  |  |  |  | 
O=C(NC[C@H]1CN(c2ccc(N3CCOCC3)c(F)c2)C(=O)O1)C1CC1 | 8 µg/mL (≈ 22 µM) | 8 µg/mL (≈ 22 µM) | 8 µg/mL (≈ 22 µM) | 8 µg/mL (≈ 22 µM) | 8 µg/mL (≈ 22 µM) | 8 µg/mL (≈ 22 µM) | 8 µg/mL (≈ 22 µM) |  |  |  |  | 
O=C(Cc1nnn[nH]1)NC[C@H]1CN(c2ccc(N3CCNCC3)c(F)c2)C(=O)O1 | > 128 µg/mL | > 128 µg/mL | > 128 µg/mL | > 128 µg/mL | > 128 µg/mL | > 128 µg/mL | > 128 µg/mL |  |  |  |  | 
O=C(Cc1cccc2ccccc12)NC[C@H]1CN(c2ccc(N3CCOCC3)c(F)c2)C(=O)O1 | 64 µg/mL (≈ 138 µM) | > 128 µg/mL | > 128 µg/mL | > 128 µg/mL | 32 µg/mL (≈ 69 µM) | > 128 µg/mL | > 128 µg/mL |  |  |  |  | 
CC(=O)NC[C@H]1CN(c2ccc(N3CCOCC3)c(F)c2)C(=O)O1 [LINEZOLID] | 2 µg/mL (≈ 5.93 µM) |  |  |  |  |  |  |  |  |  |  | 
O=C(NC[C@H]1CN(c2ccc(N3CCOCC3)c(F)c2)C(=O)O1)C1CCC1 | 8 µg/mL (≈ 21.2 µM) | 16 µg/mL (≈ 42.4 µM) | 8 µg/mL (≈ 21.2 µM) | 8 µg/mL (≈ 21.2 µM) | 8 µg/mL (≈ 21.2 µM) | 16 µg/mL (≈ 42.4 µM) | 16 µg/mL (≈ 42.4 µM) |  |  |  |  | 
NCCC(=O)NC[C@H]1CN(c2ccc(N3CCOCC3)c(F)c2)C(=O)O1 | 16 µg/mL (≈ 43.7 µM) | > 128 µg/mL | > 128 µg/mL | > 128 µg/mL | 128 µg/mL (≈ 349 µM) | > 128 µg/mL | > 128 µg/mL |  |  |  |  | 
